Assay results taken from PMC10326263 (Acta Pharmaceutica Sinica. B, 2023).

Legend:
[1] = test system: HIV-1 mutant strain K103N; assay: microbe, parasite or virus in culture; type: cell-based; settings: Human immunodeficiency virus 1, MT4, read-out: EC50 K103N
[2] = Cytotoxicity in mock-infected MT-4 cells, MTT method; type: cell-based; settings: human, mock-infected MT-4 cells, CC50, mock-infected MT-4 cells
[3] = test system: HIV-1 mutant strain Y181C; assay: microbe, parasite or virus in culture; type: cell-based; settings: Human immunodeficiency virus 1, MT4, read-out: EC50 Y181C
[4] = test system: HIV-1 WT strain (IIIB); assay: Anti-HIV activity against WT HIV-1; settings: WT HIV-1 IIIB
[5] = test system: HIV-1 mutant strain E138K; assay: microbe, parasite or virus in culture; type: cell-based; settings: Human immunodeficiency virus 1, MT4, read-out: EC50 E138K
[6] = test system: HIV-1 mutant strain L100I; assay: microbe, parasite or virus in culture; type: cell-based; settings: Human immunodeficiency virus 1, MT4, read-out: EC50 L100I
[7] = test system: HIV-1 mutant strain RES056 (K103N + Y181C); assay: microbe, parasite or virus in culture; type: cell-based; settings: Human immunodeficiency virus 1, MT4, read-out: EC50 RES056
[8] = test system: HIV-1 mutant strain Y188L; assay: microbe, parasite or virus in culture; type: cell-based; settings: Human immunodeficiency virus 1, MT4, read-out: EC50 Y188L
[9] = test system: HIV-1 mutant strain F227L + V106A; assay: microbe, parasite or virus in culture; type: cell-based; settings: Human immunodeficiency virus 1, MT4, read-out: EC50 F227L + V106A

Q: For Cc1cc(C)cc(S(=O)(=O)c2c(C(=O)NCCCCCNS(=O)(=O)c3ccc(Br)cc3)[nH]c3ccc(Cl)cc23)c1 [R6L5, 5-Chloro-3-((3,5-dimethylphenyl)sulfonyl)-N-(5-((4-bromophenyl)sulfonamido)pentyl)-1H-indole-2-carboxamide], which EC50 [1] is on record?
A: 740 ± 90 nM

Q: And the CC50 at 5 days [2]?
A: 37900 ± 6320 nM

Q: And the EC50 [3]?
A: 350 nM

Q: What about the “SI IIIB (CC50/EC50 ratio)” value [4] of the same compound?
A: 501

Q: What about the EC50 [5] of the same compound?
A: 320 ± 15 nM

Q: What about the EC50 [6] of the same compound?
A: 120 ± 39 nM

Q: What about the EC50 [7] of the same compound?
A: > 37900 nM

Q: And the EC50 [8]?
A: 2470 ± 30 nM

Q: What about the EC50 [9] of the same compound?
A: 680 ± 75 nM

Q: With Cc1cc(C)cc(S(=O)(=O)c2c(C(=O)NCCNS(=O)(=O)c3ccc(Cl)cc3)[nH]c3ccc(Cl)cc23)c1 [R7L2, 5-Chloro-3-((3,5-dimethylphenyl)sulfonyl)-N-(2-((4-chlorophenyl)sulfonamido)ethyl)-1H-indole-2-carboxamide] as the compound, how does the EC50 [1] read?
A: 220 nM

Q: And the CC50 at 5 days [2]?
A: 175000 ± 42800 nM

Q: And the EC50 [3]?
A: 310 ± 160 nM

Q: What about the “SI IIIB (CC50/EC50 ratio)” value [4] of the same compound?
A: 13,010

Q: And the EC50 [5]?
A: 360 ± 17 nM

Q: And the EC50 [6]?
A: 170 ± 41 nM

Q: And the EC50 [7]?
A: 3090 ± 500 nM

Q: And the EC50 [8]?
A: 2660 ± 170 nM

Q: And the EC50 [9]?
A: 1040 ± 350 nM

Q: With Cc1cc(C)cc(S(=O)(=O)c2c(C(=O)NCCCNS(=O)(=O)c3ccc(Cl)cc3)[nH]c3ccc(Cl)cc23)c1 [R7L3, 5-Chloro-3-((3,5-dimethylphenyl)sulfonyl)-N-(3-((4-chlorophenyl)sulfonamido)propyl)-1H-indole-2-carboxamide] as the compound, how does the EC50 [1] read?
A: 220 nM

Q: And the CC50 at 5 days [2]?
A: > 211000 nM

Q: And the EC50 [3]?
A: 570 ± 250 nM

Q: What about the “SI IIIB (CC50/EC50 ratio)” value [4] of the same compound?
A: >12,913

Q: What about the EC50 [5] of the same compound?
A: 610 ± 120 nM

Q: And the EC50 [6]?
A: 98 ± 52 nM

Q: And the EC50 [7]?
A: 9000 ± 510 nM

Q: And the EC50 [8]?
A: 190 ± 190 nM

Q: What about the EC50 [9] of the same compound?
A: 2610 ± 120 nM

Q: With Cc1cc(C)cc(S(=O)(=O)c2c(C(=O)NCCCCNS(=O)(=O)c3ccc(Cl)cc3)[nH]c3ccc(Cl)cc23)c1 [R7L4, 5-Chloro-3-((3,5-dimethylphenyl)sulfonyl)-N-(4-((4-chlorophenyl)sulfonamido)butyl)-1H-indole-2-carboxamide] as the compound, how does the EC50 [1] read?
A: 130 ± 48 nM

Q: And the CC50 at 5 days [2]?
A: 89300 ± 17800 nM

Q: What about the EC50 [3] of the same compound?
A: 180 ± 16 nM

Q: And the “SI IIIB (CC50/EC50 ratio)” value [4]?
A: 10,389

Q: And the EC50 [5]?
A: 51 ± 18 nM

Q: And the EC50 [6]?
A: 74 ± 21 nM

Q: And the EC50 [7]?
A: > 89300 nM

Q: And the EC50 [8]?
A: 1530 ± 720 nM

Q: What about the EC50 [9] of the same compound?
A: 260 nM

Q: For Cc1cc(C)cc(S(=O)(=O)c2c(C(=O)NCCCCCNS(=O)(=O)c3ccc(Cl)cc3)[nH]c3ccc(Cl)cc23)c1 [R7L5, 5-Chloro-3-((3,5-dimethylphenyl)sulfonyl)-N-(5-((4-chlorophenyl)sulfonamido)pentyl)-1H-indole-2-carboxamide], which EC50 [1] is on record?
A: 430 ± 140 nM

Q: And the CC50 at 5 days [2]?
A: 115000 ± 8890 nM

Q: What about the EC50 [3] of the same compound?
A: 190 nM

Q: And the “SI IIIB (CC50/EC50 ratio)” value [4]?
A: 11,132

Q: And the EC50 [5]?
A: 52 ± 9 nM

Q: And the EC50 [6]?
A: 61 ± 3.2 nM

Q: And the EC50 [7]?
A: > 115000 nM

Q: What about the EC50 [8] of the same compound?
A: 3140 ± 950 nM

Q: And the EC50 [9]?
A: 370 ± 110 nM

Q: What does the source list for Cc1cc(C)cc(S(=O)(=O)c2c(C(=O)NCCNS(=O)(=O)c3cccs3)[nH]c3ccc(Cl)cc23)c1 [R8L2, 5-Chloro-3-((3,5-dimethylphenyl)sulfonyl)-N-(2-(thiophene-2-sulfonamido)ethyl)-1H-indole-2-carboxamide]?
A: EC50 [1]: 1180 ± 91 nM; CC50 at 5 days [2]: 161000 ± 50300 nM; EC50 [3]: 1000 ± 91 nM; SI IIIB (CC50/EC50 ratio) [4]: 1558; EC50 [5]: 1200 ± 18 nM; EC50 [6]: 800 ± 94 nM; EC50 [7]: 4630 ± 1540 nM; EC50 [8]: 6240 ± 650 nM; EC50 [9]: 1810 ± 180 nM

Q: Which results are given for Cc1cc(C)cc(S(=O)(=O)c2c(C(=O)NCCCNS(=O)(=O)c3cccs3)[nH]c3ccc(Cl)cc23)c1 [R8L3, 5-Chloro-3-((3,5-dimethylphenyl)sulfonyl)-N-(3-(thiophene-2-sulfonamido)propyl)-1H-indole-2-carboxamide]?
A: EC50 [1]: 1030 ± 190 nM; CC50 at 5 days [2]: 121000 ± 33400 nM; EC50 [3]: 1060 ± 18 nM; SI IIIB (CC50/EC50 ratio) [4]: 2105; EC50 [5]: 280 ± 18 nM; EC50 [6]: 500 ± 140 nM; EC50 [7]: 5380 ± 1290 nM; EC50 [8]: 3540 ± 340 nM; EC50 [9]: 1650 ± 270 nM

Q: For Cc1cc(C)cc(S(=O)(=O)c2c(C(=O)NCCCCNS(=O)(=O)c3cccs3)[nH]c3ccc(Cl)cc23)c1 [R8L4, 5-Chloro-3-((3,5-dimethylphenyl)sulfonyl)-N-(4-(thiophene-2-sulfonamido)butyl)-1H-indole-2-carboxamide], which EC50 [1] is on record?
A: 470 ± 69 nM

Q: What about the CC50 at 5 days [2] of the same compound?
A: 86500 ± 11800 nM

Q: And the EC50 [3]?
A: 540 nM

Q: And the “SI IIIB (CC50/EC50 ratio)” value [4]?
A: 1953

Q: And the EC50 [5]?
A: 190 ± 17 nM

Q: What about the EC50 [6] of the same compound?
A: 130 ± 59 nM

Q: What about the EC50 [7] of the same compound?
A: > 86500 nM

Q: And the EC50 [8]?
A: 1050 ± 35 nM

Q: And the EC50 [9]?
A: 360 ± 35 nM

Q: For Cc1cc(C)cc(S(=O)(=O)c2c(C(=O)NCCCCCNS(=O)(=O)c3cccs3)[nH]c3ccc(Cl)cc23)c1 [R8L5, 5-Chloro-3-((3,5-dimethylphenyl)sulfonyl)-N-(5-(thiophene-2-sulfonamido)pentyl)-1H-indole-2-carboxamide], which EC50 [1] is on record?
A: 1230 ± 220 nM

Q: And the CC50 at 5 days [2]?
A: 35400 ± 1050 nM

Q: And the EC50 [3]?
A: 730 ± 340 nM

Q: And the “SI IIIB (CC50/EC50 ratio)” value [4]?
A: 526

Q: And the EC50 [5]?
A: 200 ± 51 nM

Q: And the EC50 [6]?
A: 170 ± 17 nM

Q: And the EC50 [7]?
A: > 43300 nM

Q: What about the EC50 [8] of the same compound?
A: 2710 ± 130 nM

Q: And the EC50 [9]?
A: 1260 ± 340 nM
